The values below come from paper PMC7180948, “New Insights into 4-Anilinoquinazolines as Inhibitors of Cardiac Troponin I–Interacting Kinase (TNNi3K)” (Molecules, 2020).

Common to all, as to assay: biochemical
What all share (set-up): KINOMEscan competition binding panel (Eurofins DiscoverX), single concentration, percent inhibition
Common to all, as to conditions: read-out: 15 at 1 µM % inhibition

For assay [1], the target named is T1, RSK2(Kin.Dom.2-C-terminal) (Homo sapiens, UniProt P51812).
T1 construct: gene RPS6KA3; Kin.Dom.2-C-terminal
T1 sequence (P51812 whole entry): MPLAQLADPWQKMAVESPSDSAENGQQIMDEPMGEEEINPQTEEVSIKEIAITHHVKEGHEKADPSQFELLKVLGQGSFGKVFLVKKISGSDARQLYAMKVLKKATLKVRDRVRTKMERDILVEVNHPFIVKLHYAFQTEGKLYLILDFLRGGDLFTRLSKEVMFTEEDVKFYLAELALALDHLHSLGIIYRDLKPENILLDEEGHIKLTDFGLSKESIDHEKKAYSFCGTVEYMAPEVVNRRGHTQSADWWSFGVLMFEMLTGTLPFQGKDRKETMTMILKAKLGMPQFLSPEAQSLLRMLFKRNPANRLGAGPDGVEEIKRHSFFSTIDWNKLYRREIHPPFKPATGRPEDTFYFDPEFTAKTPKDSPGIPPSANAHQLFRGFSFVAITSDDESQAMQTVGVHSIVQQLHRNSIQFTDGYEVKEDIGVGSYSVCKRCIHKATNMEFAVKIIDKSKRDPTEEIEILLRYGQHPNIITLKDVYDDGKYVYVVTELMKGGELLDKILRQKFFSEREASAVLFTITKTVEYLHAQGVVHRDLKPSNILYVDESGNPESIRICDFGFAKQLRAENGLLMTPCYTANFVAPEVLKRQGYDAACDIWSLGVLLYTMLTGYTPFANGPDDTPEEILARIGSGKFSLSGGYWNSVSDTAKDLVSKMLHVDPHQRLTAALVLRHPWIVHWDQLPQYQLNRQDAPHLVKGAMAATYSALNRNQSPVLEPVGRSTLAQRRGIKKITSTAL
In outline:
(§1)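 KINOMEscan selectivity screen; >400 human kinases; compound at 1 µM, single concentration.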

The next assay concerns the target LIMK1 (Homo sapiens, UniProt P53667). The gist of the method:
as §1

A further assay has as its target EPHB4 (Homo sapiens, UniProt P54760). The gist of the method:
as §1

A further assay has as its target PIM3 (Homo sapiens, UniProt Q86V86). In outline:
as §1

Another assay concerns the target CSNK1G1 (Homo sapiens, UniProt Q9HCP0). In outline: as §1
The next assay addresses PIK3CA(H1047Y) (Homo sapiens, UniProt P42336, H1047Y). In outline:
as §1

The target in another assay is ERBB4 (Homo sapiens, UniProt Q15303). In outline:
as §1

The target in another assay is ACVR2A (Homo sapiens, UniProt P27037). In outline: as §1
The next assay has as its target EGFR(T790M) (Homo sapiens, UniProt P00533, T790M). The gist of the method:
as §1

The next assay has as its target EGFR(S752-I759del) (Homo sapiens, UniProt P00533, DEL752-759). In outline: as §1
The target of a further assay is MELK (Homo sapiens, UniProt Q14680). In outline: as §1
A further assay has as its target PIK3CB (Homo sapiens, UniProt P42338). In outline: as §1
A further assay concerns the target TLK2 (Homo sapiens, UniProt Q86UE8). In outline: as §1
Another assay has as its target FER (Homo sapiens, UniProt P16591). The gist of the method: as §1
The target in a further assay is LCK (Homo sapiens, UniProt P06239). In outline: as §1
LCK, sequence (P06239 whole entry): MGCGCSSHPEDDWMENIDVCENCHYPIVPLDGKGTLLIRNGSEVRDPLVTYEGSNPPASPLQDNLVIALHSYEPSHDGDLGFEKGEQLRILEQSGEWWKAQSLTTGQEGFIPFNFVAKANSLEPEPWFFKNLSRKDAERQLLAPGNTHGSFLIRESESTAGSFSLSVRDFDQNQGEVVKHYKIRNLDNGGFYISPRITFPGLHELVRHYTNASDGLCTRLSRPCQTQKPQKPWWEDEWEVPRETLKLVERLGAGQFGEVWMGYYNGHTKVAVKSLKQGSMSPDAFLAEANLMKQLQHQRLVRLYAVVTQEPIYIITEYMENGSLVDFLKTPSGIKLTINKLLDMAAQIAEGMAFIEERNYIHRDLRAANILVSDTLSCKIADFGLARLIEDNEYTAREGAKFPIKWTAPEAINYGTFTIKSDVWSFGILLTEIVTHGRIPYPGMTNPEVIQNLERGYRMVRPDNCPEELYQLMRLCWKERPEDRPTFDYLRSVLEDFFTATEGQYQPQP
A further assay deals with STK36 (Homo sapiens, UniProt Q9NRP7). The gist of the method: as §1
Another assay deals with IRAK3 (Homo sapiens, UniProt Q9Y616). The gist of the method:
as §1

Another assay has as its target T2, HPK1 (Homo sapiens, UniProt Q92918).
T2 construct: gene MAP4K1
In outline: as §1

The next assay deals with IRAK4 (Homo sapiens, UniProt Q9NWZ3). The gist of the method: as §1
IRAK4, sequence (Q9NWZ3 whole entry): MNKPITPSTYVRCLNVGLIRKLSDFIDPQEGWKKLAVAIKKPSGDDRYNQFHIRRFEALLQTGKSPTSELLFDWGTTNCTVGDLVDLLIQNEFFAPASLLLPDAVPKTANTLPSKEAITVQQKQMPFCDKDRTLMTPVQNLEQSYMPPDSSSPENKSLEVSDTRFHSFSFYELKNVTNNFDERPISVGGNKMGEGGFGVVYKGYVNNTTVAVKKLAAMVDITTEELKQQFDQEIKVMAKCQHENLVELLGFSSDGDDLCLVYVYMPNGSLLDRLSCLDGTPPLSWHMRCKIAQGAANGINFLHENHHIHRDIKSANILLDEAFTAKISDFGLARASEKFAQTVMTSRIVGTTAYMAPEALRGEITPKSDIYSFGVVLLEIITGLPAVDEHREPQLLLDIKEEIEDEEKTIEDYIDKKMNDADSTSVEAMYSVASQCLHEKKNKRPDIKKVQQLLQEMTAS
In another assay the target is BMPR1A (Homo sapiens, UniProt P36894). The gist of the method:
as §1

The next assay has as its target PDGFRA (Homo sapiens, UniProt P16234). In outline: as §1
The next assay deals with MARK1 (Homo sapiens, UniProt Q9P0L2). In outline:
as §1

For another assay, the target named is PLK4 (Homo sapiens, UniProt O00444). The gist of the method:
as §1

In the next assay the target is HASPIN (Homo sapiens, UniProt Q8TF76). The gist of the method:
as §1

PDGFRA, sequence (P16234 whole entry): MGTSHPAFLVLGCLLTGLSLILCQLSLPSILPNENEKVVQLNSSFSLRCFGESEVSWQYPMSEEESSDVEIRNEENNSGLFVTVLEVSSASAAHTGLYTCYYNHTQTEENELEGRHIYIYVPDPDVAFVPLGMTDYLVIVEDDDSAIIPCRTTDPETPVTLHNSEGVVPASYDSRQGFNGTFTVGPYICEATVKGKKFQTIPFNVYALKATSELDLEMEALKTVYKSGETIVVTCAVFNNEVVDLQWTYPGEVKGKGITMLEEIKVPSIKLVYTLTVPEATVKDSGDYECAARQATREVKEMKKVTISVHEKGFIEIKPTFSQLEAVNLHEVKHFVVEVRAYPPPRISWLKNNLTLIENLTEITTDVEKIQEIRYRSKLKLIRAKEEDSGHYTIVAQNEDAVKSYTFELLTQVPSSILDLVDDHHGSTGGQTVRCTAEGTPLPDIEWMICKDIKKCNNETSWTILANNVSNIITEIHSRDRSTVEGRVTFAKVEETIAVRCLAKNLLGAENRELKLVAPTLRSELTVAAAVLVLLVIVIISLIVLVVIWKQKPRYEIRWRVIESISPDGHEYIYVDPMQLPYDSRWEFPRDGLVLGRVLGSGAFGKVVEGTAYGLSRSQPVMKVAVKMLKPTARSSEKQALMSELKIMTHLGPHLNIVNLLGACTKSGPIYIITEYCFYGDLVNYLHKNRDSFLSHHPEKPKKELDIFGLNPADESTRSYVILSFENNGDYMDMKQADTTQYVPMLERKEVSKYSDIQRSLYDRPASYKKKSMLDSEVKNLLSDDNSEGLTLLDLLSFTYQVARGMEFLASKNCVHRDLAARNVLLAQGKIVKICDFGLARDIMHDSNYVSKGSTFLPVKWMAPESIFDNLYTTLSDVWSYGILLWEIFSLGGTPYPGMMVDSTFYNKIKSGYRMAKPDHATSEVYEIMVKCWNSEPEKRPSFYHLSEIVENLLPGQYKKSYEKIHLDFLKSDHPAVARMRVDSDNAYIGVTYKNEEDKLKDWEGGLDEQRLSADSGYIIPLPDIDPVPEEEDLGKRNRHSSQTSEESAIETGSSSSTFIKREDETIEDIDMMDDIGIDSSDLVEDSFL
MARK1, sequence (Q9P0L2 whole entry): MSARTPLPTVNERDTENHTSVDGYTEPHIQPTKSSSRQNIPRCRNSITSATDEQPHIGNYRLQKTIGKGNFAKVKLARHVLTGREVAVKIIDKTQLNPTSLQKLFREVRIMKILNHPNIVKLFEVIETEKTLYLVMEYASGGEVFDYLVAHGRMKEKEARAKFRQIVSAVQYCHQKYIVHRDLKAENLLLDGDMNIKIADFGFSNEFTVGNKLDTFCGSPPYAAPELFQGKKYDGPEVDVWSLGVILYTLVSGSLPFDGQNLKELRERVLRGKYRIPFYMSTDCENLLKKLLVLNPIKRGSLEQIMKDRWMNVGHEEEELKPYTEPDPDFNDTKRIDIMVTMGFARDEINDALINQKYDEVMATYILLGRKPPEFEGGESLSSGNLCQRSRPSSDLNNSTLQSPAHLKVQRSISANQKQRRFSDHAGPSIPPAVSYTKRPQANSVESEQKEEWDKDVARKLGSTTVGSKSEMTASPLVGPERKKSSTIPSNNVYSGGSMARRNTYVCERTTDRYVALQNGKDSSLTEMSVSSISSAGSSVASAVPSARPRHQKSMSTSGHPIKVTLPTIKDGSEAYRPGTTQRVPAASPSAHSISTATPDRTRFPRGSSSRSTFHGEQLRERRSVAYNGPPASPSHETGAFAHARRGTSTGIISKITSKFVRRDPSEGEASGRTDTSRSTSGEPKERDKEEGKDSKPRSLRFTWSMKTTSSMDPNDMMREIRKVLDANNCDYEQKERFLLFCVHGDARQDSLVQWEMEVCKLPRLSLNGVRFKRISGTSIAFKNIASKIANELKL
T2 sequence (Q92918 whole entry): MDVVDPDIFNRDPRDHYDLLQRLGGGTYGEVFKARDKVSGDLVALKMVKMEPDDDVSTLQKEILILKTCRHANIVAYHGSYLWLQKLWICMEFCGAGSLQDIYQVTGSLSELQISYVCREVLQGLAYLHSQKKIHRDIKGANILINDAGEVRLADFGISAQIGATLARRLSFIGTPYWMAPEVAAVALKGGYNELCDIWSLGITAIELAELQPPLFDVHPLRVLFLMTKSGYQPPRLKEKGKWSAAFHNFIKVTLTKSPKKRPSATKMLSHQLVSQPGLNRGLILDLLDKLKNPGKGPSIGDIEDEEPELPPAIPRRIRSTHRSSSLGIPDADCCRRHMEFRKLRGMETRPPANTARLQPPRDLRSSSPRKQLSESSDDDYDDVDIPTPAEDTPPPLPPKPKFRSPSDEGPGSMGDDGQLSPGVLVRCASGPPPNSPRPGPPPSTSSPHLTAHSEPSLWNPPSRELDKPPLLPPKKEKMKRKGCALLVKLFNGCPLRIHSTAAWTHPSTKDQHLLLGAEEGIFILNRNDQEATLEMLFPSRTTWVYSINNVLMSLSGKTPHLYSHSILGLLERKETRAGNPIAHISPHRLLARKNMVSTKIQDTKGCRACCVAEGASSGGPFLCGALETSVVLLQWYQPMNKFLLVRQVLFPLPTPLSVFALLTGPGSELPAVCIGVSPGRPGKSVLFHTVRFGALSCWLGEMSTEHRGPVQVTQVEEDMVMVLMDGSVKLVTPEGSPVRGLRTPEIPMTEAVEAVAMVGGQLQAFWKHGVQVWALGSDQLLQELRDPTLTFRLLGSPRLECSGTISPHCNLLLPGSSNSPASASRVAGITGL
IRAK3, sequence (Q9Y616 whole entry): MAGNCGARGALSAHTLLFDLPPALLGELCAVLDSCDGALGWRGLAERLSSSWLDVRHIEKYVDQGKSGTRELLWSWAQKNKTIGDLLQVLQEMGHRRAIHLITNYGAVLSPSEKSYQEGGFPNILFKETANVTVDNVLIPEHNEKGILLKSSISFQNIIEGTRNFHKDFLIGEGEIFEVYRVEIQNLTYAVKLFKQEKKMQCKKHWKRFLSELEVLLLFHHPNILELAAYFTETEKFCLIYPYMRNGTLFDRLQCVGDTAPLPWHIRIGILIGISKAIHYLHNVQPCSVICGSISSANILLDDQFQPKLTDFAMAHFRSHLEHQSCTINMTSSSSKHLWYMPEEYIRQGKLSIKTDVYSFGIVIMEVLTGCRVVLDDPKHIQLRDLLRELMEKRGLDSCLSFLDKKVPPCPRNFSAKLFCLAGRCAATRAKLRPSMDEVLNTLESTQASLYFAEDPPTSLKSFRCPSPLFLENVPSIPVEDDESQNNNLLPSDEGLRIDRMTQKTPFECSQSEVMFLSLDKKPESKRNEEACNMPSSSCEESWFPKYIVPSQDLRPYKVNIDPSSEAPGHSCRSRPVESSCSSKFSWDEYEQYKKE

As usually defined, the inhibition is the percentage by which the read-out fell short of the control. Regarding `CNS(=O)(=O)c1ccc(N(C)C)c(Nc2nc(C)nc3cc(OC)c(OC)cc23)c1` [compound 15, 3-((6,7-dimethoxy-2-methylquinazolin-4-yl)amino)-4-(dimethylamino)-N-methylbenzenesulfonamide], the inhibition at 1 µM in assay [1] came out at 16%; at LIMK1, 0%; on EPHB4, 0%; on PIM3, 3%; at CSNK1G1, 0%; at PIK3CA(H1047Y) it was 21%. The inhibition at 1 µM on ERBB4 turned out to be 0%; at ACVR2A, 0%; at EGFR(T790M), 25%; on EGFR(S752-I759del), 9%; at MELK it was 0%; at PIK3CB it was 25%. For the same compound, the inhibition at 1 µM on TLK2 amounted to 0%; on FER, 0%; on LCK, 0%; on STK36 it was 0%; at IRAK3, 3%; at HPK1, 0%. The inhibition at 1 µM is 0% at IRAK4; 0% at BMPR1A; 10% at PDGFRA; 0% on MARK1; 23% at PLK4; 0% at HASPIN.
